{
  "source": "paper PMC10010340",
  "about": "“The Wnt Pathway Inhibitor RXC004 Blocks Tumor Growth and Reverses Immune Evasion in Wnt Ligand–dependent Cancer Models” (Cancer Research Communications, 2022)",
  "key": {"Hepatocyte stability [1]": {"test": "Hepatocyte stability", "format": "in vitro ADME", "settings": "Human, 1 μmol/L", "method": "(§1) Metabolic stability: liver microsomes and hepatocytes from human, mouse (CD1), rat (Sprague Dawley) and dog (Beagle) were obtained from Invitrogen. RXC004 (1 μmol/L) was incubated at 37°C with microsomes (0.5 mg · mL^−1) or hepatocytes (0.5 × 10^6 cells · mL^−1). Aliquots were removed at 0–45 minutes and RXC004 concentrations determined by LC/MS-MS analysis. Half-life (T1/2) and intrinsic clearance (CLint) were calculated as described in ref. [18]."}, "Plasma protein binding": {"test": "Plasma protein binding", "format": "in vitro ADME", "method": "Plasma protein binding: Mouse, rat, dog, and human plasmas were obtained from TCS Biosciences Ltd and Sera Laboratories Ltd. A total of 20 μmol/L RXC004 in 10% plasma diluted with phosphate buffer was dialyzed against phosphate buffer for 18 hours at 37°C. The concentration of RXC004 each side of the dialysis plate was determined by LC/MS-MS. Results were corrected to 100% plasma."}, "Hepatocyte stability [2]": {"test": "Hepatocyte stability", "format": "in vitro ADME, dog (Beagle)", "settings": "Dog, 1 μmol/L", "method": "as §1"}, "[3]": {"tested_on": "functional Wnt production from mouse L-Wnt3a cells", "test": "Wnt reporter assay (L-Wnt3a conditioned media on LEADING LIGHT Wnt Reporter Cell Line)", "format": "cell-based", "method": "Reporter Assay: Media from L-Wnt3a cells (L cells overexpressing Wnt3a; ATCC CRL-2647) treated with a concentration-series of RXC004, was incubated with the LEADING LIGHT Wnt Reporter Cell Line (Enzo life sciences; ENZ-61002-0001). Luciferase was detected using the ONE-Glo Luciferase Assay System (Promega E6120), data were normalized to DMSO-treated controls and IC50 values determined. Recombinant Wnt3a (Bio-Techne #1324-WN-010) was used at 1 μg/mL. β-catenin expression: L-Wnt3a cells were treated with RXC004 (100 nmol/L) or DMSO (0.1%) for 24 hours. Cellular β-catenin protein levels were quantified by staining with anti-β-catenin (AlexaFluor488, BD 562505) and assessment using an Agilent Novocyte-3000 flow cytometer."}, "HPAF-II xenograft": {"tested_on": "HPAF-II xenograft", "test": "In vivo 18FDG-PET biodistribution", "set-up": "species or system mouse (NOD-SCID)", "settings": "5 mg/kg once daily, 7-day dosing", "method": "(§2) Experiment was performed at Medicines Discovery Catapult. SNU-1411 (1 × 10^7 cells; NOD-SCID mice) or HPAF-II (1 × 10^7 cells; NOD-SCID mice) were implanted subcutaneously and treatment with RXC004 (5 mg/kg once daily) or vehicle commenced when tumors reached approximately 200 mm^3. Mice were imaged prior to dosing, day 3 and day 7 after dosing. A 10 MBq injection of ^18FDG (PETNET), with a 45-minute washout was followed by a 20-minute PET scan using a Siemens Inveon PET scanner. Tissues removed on day 7 for biodistribution analysis were assessed using a PerkinElmer Wallac Wizard Gamma counter."}, "Microsomal stability [4]": {"test": "Microsomal stability", "format": "in vitro ADME, mouse (CD1)", "settings": "Mouse, 1 μmol/L", "method": "as §1"}, "In vivo pharmacokinetics": {"test": "In vivo pharmacokinetics", "set-up": "species or system rat (male Sprague Dawley)", "settings": "rat", "method": "In vivo pharmacokinetics: RXC004 was dosed to male Sprague Dawley rats, male CD1 mice or dog (beagle) by intravenous and oral routes. Bioanalysis of blood and plasma samples was performed by LC/MS-MS using a Waters TQS or TQMS mass spectrometer. Pharmacokinetic information was derived using WinNonlin software (Certara)."}, "CYP3A4": {"biological_target": "T1, CYP3A4 (Homo sapiens, UniProt P08684)", "T1 construct": "from tissue; host or cells: human liver microsomes", "T1 sequence (P08684 whole entry)": "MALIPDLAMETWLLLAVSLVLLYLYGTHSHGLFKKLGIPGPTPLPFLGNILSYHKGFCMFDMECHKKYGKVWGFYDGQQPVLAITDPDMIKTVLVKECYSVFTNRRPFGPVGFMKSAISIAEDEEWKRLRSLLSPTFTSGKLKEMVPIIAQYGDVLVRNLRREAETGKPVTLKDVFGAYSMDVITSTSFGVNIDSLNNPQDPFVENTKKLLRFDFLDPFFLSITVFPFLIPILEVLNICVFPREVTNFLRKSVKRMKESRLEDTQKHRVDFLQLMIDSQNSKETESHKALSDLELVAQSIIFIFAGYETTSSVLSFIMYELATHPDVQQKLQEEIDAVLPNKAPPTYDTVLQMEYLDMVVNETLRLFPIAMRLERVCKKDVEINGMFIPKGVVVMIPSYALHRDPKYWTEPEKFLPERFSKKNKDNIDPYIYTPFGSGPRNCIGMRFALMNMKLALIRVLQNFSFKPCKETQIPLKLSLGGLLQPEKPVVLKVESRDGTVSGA", "test": "Cytochrome P450 inhibition in human liver microsomes", "format": "in vitro ADME", "method": "(§3) Cytochrome P450 (CYP) assays were performed using human liver microsomes incubated with P450 specific substrates as recommended by the FDA ([19]) at a concentration equivalent to Km in the presence of 0.03–30 μmol/L RXC004, or solvent control. Concentration of the metabolites was analyzed by LC/MS-MS."}, "CYP2C19": {"biological_target": "T2, CYP2C19 (Homo sapiens, UniProt P33261)", "T2 construct": "from tissue; host or cells: human liver microsomes", "T2 sequence (P33261 whole entry)": "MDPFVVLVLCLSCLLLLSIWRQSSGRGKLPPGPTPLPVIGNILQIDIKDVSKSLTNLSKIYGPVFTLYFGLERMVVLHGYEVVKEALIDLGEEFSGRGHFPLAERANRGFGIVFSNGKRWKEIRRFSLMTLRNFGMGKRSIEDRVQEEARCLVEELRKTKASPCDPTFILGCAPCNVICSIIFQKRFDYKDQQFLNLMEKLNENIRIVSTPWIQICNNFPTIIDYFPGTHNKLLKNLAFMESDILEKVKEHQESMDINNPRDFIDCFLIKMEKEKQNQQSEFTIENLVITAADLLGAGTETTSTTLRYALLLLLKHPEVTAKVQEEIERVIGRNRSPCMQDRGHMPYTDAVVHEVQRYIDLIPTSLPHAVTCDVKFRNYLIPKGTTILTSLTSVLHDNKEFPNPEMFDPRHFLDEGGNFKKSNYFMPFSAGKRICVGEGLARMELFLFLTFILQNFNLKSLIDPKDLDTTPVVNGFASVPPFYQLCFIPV", "test": "Cytochrome P450 inhibition in human liver microsomes", "format": "in vitro ADME", "method": "as §3"}, "CYP2D6": {"biological_target": "T3, CYP2D6 (Homo sapiens, UniProt P10635)", "T3 construct": "from tissue; host or cells: human liver microsomes", "T3 sequence (P10635 whole entry)": "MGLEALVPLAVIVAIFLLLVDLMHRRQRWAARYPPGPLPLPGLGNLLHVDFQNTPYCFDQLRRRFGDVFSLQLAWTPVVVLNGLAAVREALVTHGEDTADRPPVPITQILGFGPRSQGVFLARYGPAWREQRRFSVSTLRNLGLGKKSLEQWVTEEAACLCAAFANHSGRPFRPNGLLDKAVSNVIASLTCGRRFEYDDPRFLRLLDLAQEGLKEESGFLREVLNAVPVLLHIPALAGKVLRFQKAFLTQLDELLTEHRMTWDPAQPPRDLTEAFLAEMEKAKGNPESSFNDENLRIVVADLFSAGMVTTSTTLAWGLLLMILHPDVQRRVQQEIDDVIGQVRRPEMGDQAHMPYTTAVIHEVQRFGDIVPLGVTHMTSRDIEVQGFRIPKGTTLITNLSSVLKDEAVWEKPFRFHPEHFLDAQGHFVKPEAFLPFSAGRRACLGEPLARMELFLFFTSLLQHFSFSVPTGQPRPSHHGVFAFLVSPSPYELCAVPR", "test": "Cytochrome P450 inhibition in human liver microsomes", "format": "in vitro ADME", "method": "as §3"}, "CYP1A2": {"biological_target": "T4, CYP1A2 (Homo sapiens, UniProt P05177)", "T4 construct": "from tissue; host or cells: human liver microsomes", "T4 sequence (P05177 whole entry)": "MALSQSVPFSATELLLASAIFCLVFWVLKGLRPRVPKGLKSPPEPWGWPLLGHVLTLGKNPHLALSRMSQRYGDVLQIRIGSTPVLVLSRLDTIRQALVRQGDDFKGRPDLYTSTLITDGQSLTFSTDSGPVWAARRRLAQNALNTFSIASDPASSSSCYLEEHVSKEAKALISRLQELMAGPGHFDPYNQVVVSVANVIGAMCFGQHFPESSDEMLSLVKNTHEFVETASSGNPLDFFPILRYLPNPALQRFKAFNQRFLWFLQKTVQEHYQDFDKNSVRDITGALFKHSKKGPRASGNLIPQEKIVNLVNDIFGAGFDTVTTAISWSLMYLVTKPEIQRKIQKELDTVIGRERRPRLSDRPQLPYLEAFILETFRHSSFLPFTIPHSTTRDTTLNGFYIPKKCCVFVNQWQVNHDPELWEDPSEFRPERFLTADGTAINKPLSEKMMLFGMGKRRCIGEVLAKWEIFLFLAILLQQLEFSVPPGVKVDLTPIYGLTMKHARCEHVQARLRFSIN", "test": "Cytochrome P450 inhibition in human liver microsomes", "format": "in vitro ADME", "method": "as §3"}, "CYP2C9": {"biological_target": "T5, CYP2C9 (Homo sapiens, UniProt P11712)", "T5 construct": "from tissue; host or cells: human liver microsomes", "T5 sequence (P11712 whole entry)": "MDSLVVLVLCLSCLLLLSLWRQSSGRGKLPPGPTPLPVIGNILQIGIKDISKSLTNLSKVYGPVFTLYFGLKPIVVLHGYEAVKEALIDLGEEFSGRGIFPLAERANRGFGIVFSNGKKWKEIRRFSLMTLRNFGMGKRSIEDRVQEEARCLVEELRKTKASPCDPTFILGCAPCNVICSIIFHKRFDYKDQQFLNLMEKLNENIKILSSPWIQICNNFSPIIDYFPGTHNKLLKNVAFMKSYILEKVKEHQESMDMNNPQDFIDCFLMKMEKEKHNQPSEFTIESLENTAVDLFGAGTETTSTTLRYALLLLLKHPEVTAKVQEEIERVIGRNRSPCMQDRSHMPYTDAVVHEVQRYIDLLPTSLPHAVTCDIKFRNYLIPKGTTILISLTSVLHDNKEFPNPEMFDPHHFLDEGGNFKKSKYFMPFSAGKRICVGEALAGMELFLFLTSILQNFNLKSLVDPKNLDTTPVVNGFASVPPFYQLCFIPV", "test": "Cytochrome P450 inhibition in human liver microsomes", "format": "in vitro ADME", "method": "as §3"}, "Hepatocyte stability [5]": {"test": "Hepatocyte stability", "format": "in vitro ADME, mouse (CD1)", "settings": "Mouse, 1 μmol/L", "method": "as §1"}, "Microsomal stability [6]": {"test": "Microsomal stability", "format": "in vitro ADME", "settings": "Human, 1 μmol/L", "method": "as §1"}, "SNU-1411 xenograft": {"tested_on": "SNU-1411 xenograft", "test": "In vivo 18FDG-PET", "set-up": "species or system mouse (NOD-SCID)", "settings": "SNU-1411, 5 mg/kg once daily", "method": "as §2"}, "Microsomal stability [7]": {"test": "Microsomal stability", "format": "in vitro ADME, rat (Sprague Dawley)", "settings": "Rat, 1 μmol/L", "method": "as §1"}, "[8]": {"tested_on": "small intestine of SCID-Beige mice", "test": "In vivo toxicity in mice, 28 days (small intestine H&E, Ki67, body weight)", "set-up": "species or system mouse (SCID-Beige)", "method": "Groups of 9–10 SCID-Beige mice were dosed at Translational Drug Discovery with vehicle, 1.5 mg/kg or 5 mg/kg RXC004 orally twice daily, or 5 mg/kg RXC004 orally once daily, for 28 days. Formulation: 5% DMSO, 95% hydroxyl propyl beta cyclodextrin (25% w/v). Formalin-fixed, paraffin-embedded (FFPE) samples from the small intestine were assessed by hematoxylin and eosin (H&E) and/or Ki67 staining at Histologix."}, "[9]": {"settings": "male, Sprague Dawley, in vivo, po, 5 mg/kg p.o."}},
  "data": [
    {"smiles": "Cc1c(-c2ccnc(C(F)(F)F)c2)ncn1CC(=O)Nc1ccc(-c2cnccn2)cn1", "note": "[RXC004, 2-[5-methyl-4-[2-(trifluoromethyl)-4-pyridyl]imidazol-1-yl]-N-(5-pyrazin-2-yl-2-pyridyl)acetamide]", "values": [
      {"measurement": "Hepatocyte stability: CLint", "setting": "Hepatocyte stability [1]", "result": "<3.0 μL minute^−^1 · 10^6 cells^−^1"},
      {"measurement": "Plasma protein binding (% free)", "setting": "Plasma protein binding; Dog", "result": 2.5, "unit": "% free"},
      {"measurement": "Plasma protein binding (% free)", "setting": "Plasma protein binding; Human", "result": 4.2, "unit": "% free"},
      {"measurement": "Plasma protein binding (% free)", "setting": "Plasma protein binding; Mouse", "result": 7.5, "unit": "% free"},
      {"measurement": "Plasma protein binding (% free)", "setting": "Plasma protein binding; Rat", "result": 5.0, "unit": "% free"},
      {"measurement": "Hepatocyte stability: CLint", "setting": "Hepatocyte stability [2]", "result": "12.5 μL minute^−^1 · 10^6 cells^−^1"},
      {"measurement": "IC50", "setting": "[3]; Mus musculus, L Wnt-3A, L-Wnt3a cells treated with concentration-series, read-out: IC50, β-catenin responsive luciferase reporter activated by conditioned media", "result": 0.064, "unit": "nM"},
      {"measurement": "effect on downstream Wnt signaling (rescue by recombinant Wnt3a)", "setting": "[3]; recombinant Wnt3a 1 μg/mL", "result": "no effect on downstream Wnt signaling"},
      {"measurement": "18FDG tumor:blood ratios", "setting": "HPAF-II xenograft", "result": "significant decrease in tumor:blood ratios"},
      {"measurement": "Microsomal stability: CLint", "setting": "Microsomal stability [4]", "result": 3.9, "unit": "μL minute^−^1 · mg^−^1"},
      {"measurement": "clearance", "setting": "In vivo pharmacokinetics; male, Sprague Dawley, in vivo, intravenous, 2 mg/kg, dose i.v./p.o. 2/5 mg/kg", "result": 5.8, "unit": "mL/min/kg"},
      {"measurement": "Vd", "setting": "In vivo pharmacokinetics; male, Sprague Dawley, in vivo, intravenous, 2 mg/kg, dose i.v./p.o. 2/5 mg/kg, read-out: Vss", "result": 0.64, "unit": "L/kg"},
      {"measurement": "AUC(0-inf)", "setting": "In vivo pharmacokinetics; [9]", "result": 10.5, "unit": "µM·h"},
      {"measurement": "Cmax", "setting": "In vivo pharmacokinetics; [9]", "result": 3600, "unit": "nM"},
      {"measurement": "concentration at 24 h", "setting": "In vivo pharmacokinetics; male, Sprague Dawley, in vivo, po, 5 mg/kg p.o., read-out: C24h (p.o.)", "result": 9, "unit": "nM"},
      {"measurement": "half-life", "setting": "In vivo pharmacokinetics; male, Sprague Dawley, in vivo, dose i.v./p.o. 2/5 mg/kg, read-out: T½ (converted)", "result": 2.5, "unit": "h"},
      {"measurement": "F (p.o.)", "setting": "In vivo pharmacokinetics; dose i.v./p.o. 2/5 mg/kg", "result": 31, "unit": "%"},
      {"measurement": "IC50", "setting": "CYP3A4", "result": "> 25", "unit": "µM"},
      {"measurement": "IC50", "setting": "CYP2C19", "result": "> 25", "unit": "µM"},
      {"measurement": "IC50", "setting": "CYP2D6", "result": "> 25", "unit": "µM"},
      {"measurement": "IC50", "setting": "CYP1A2", "result": "> 25", "unit": "µM"},
      {"measurement": "IC50", "setting": "CYP2C9", "result": "> 25", "unit": "µM"},
      {"measurement": "Hepatocyte stability: CLint", "setting": "Hepatocyte stability [5]", "result": "<3.0 μL minute^−^1 · 10^6 cells^−^1"},
      {"measurement": "Microsomal stability: CLint", "setting": "Microsomal stability [6]", "result": 6.0, "unit": "μL minute^−^1 · mg^−^1"},
      {"measurement": "18FDG tumor:blood ratios", "setting": "SNU-1411 xenograft; 7-day dosing", "result": "significant decrease in tumor:blood ratios"},
      {"measurement": "decrease in maximum standardized uptake value (18FDG-PET)", "setting": "SNU-1411 xenograft; day 7, versus vehicle", "result": 31, "unit": "%"},
      {"measurement": "Microsomal stability: CLint", "setting": "Microsomal stability [7]", "result": 7.8, "unit": "μL minute^−^1 · mg^−^1"},
      {"measurement": "Ki67 proliferation marker in intestinal crypts", "setting": "[8]; 1.5 mg/kg twice daily", "result": "no effect on the Ki67 proliferation marker"},
      {"measurement": "villi architecture", "setting": "[8]; 1.5 mg/kg twice daily", "result": "No effects"},
      {"measurement": "villi architecture", "setting": "[8]; 5 mg/kg once daily", "result": "No effects"},
      {"measurement": "Ki67 proliferation marker in intestinal crypts", "setting": "[8]; 5 mg/kg twice daily", "result": "clear decrease"},
      {"measurement": "body weight", "setting": "[8]; 5 mg/kg twice daily", "result": "loss of body weight"},
      {"measurement": "villi architecture", "setting": "[8]; 5 mg/kg twice daily, only in some animals", "result": "Disruption of villi architecture"}
    ]}
  ]
}
